Results: PubChem BioAssay AID179 (DTP/NCI, 2004)
Calls of active or inactive are those of the source.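 How the source made its calls: active means compounds giving half or more protection of infected cells from virus-caused growth loss, again on retest; inactive means the rest.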 Where a SMILES comes first, the peptide text is derived from it. [ ]: non-standard residue; d: D form. The star is where a group is joined. pGlu = O=C1CC[CH](C(=O)O)N1; Boc = CC(C)(C)OC(=O)*; OcHex = C1CCC(O*)CC1

Tested on: CEM cells HIV-1 protection, formazan growth assay
Test: NCI AIDS Antiviral Assay
Conditions: for IC50: measured here: growth of uninfected CEM cells
Procedure, shortened: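 Category rules: moderately active means at least 50% protection on retest, and confirmed active means 100% protection reproducibly. The underlying data came from a formazan growth assay in HIV-1-infected CEM cells.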

Row | SMILES | outcome | EC50 [µM] | IC50 [µM]
1 | C=C1[C@H]2C(=O)[C@H]3[C@@H]4N(C)C5CC3([C@@H]1OC(C)=O)[C@@H](C2OC(C)=O)C41[C@H](OC(C)=O)C(OC(=O)c2ccccc2)C[C@@](C)(C=O)[C@@H]51 (stereo not given in full) | inactive |  | 
2 | COc1ccc2nc(NC(=O)C(=O)CC(=O)c3ccc(Cl)cc3)sc2c1 | inactive |  | 
3 | CC1(C)CNC[C@](C)(OCc2ccccc2)N1 |  | > 200 | > 200
4 | O=c1c(-c2ccccc2)coc2cc(O)ccc12 |  | > 200 | 52.5
5 | C=CCNC(=S)N/C=C(\C#N)C(N)=O |  | > 200 | > 200
6 | O=C1c2ccccc2C(=O)c2sc(Nc3ccc(Cl)c(Cl)c3)nc21 |  | > 19.1 | 15.8
7 | O=C(c1ccccc1)c1ccc2cccc(OC3OC(CO)C(O)C(O)C3O)c2n1 (stereo not given) |  | > 603 | 316
8 | CC(C)(C)C1CCC2c3c([nH]c4ccccc34)C3C(=O)N(c4ccc(C(=O)O)cc4)C(=O)C3C2C1 (stereo not given) |  | > 200 | 14.5
9 | O=C1/C(=C/c2cccs2)NC(=S)N1CN1CCCCC1 |  | > 200 | 33.1
10 | Brc1ccc(-c2nnc(-c3nn(-c4ccccc4)c4nc5ccccc5nc34)o2)cc1 |  | > 8.13 | > 8.13
11 | Cc1oc2c(c1C)S(=O)(=O)C(C#N)=C(N(C)C)N2 |  | > 200 | > 200
12 | C/C(CC1SCCCS1)=C(/C)CC1SCCCS1 |  | > 200 | > 200
13 | [N-]=[N+]=C1C(=O)C2CC3CC(C2)CC1C3 |  | > 191 | > 191
14 | O=C1/C(=C/c2ccc(Br)s2)NC(=S)N1c1ccccc1 |  | > 200 | 95.5
15 | CCSSc1ccccc1C(=O)O |  | > 200 | 32.4
16 | O=C(O)c1cc2c(cc1C(=O)O)C(=O)C(c1ccccc1)C2=O |  | > 200 | > 200
17 | C/C(=N/OC(=O)N(C)C)c1ccccc1 |  | > 200 | > 200
18 | COc1cc(N=O)c(N=O)cc1[N+](=O)[O-] |  | > 170 | 15.1

Row | SMILES | outcome | EC50 [µM] | IC50 [µM]
19 | COCC(=O)C1CC[C@@H]2[C@H](CC[C@]3(C)[C@@H](OC(C)=O)CC[C@@H]23)[C@H]1C(=O)OC (stereo not given in full) |  | > 50.1 | > 50.1
20 | O=C1C2CCSCN2C(=O)N1c1ccccc1 (stereo not given) |  | > 40.7 | > 40.7
21 | O=c1c(SSc2coc3cc(F)ccc3c2=O)coc2cc(F)ccc12 |  | > 200 | 2.75
22 | COC1C=CC(C(=O)[N+]2=Cc3[nH]c4ccccc4c3CC2)O1 (stereo not given) |  | > 251 | 85.1
23 | O=C(CO)CC(=O)C(=O)Nc1cccc(C(F)(F)F)c1 | inactive |  | 
24 | C=C(CCCCOCOCCOC)c1ccccc1 | inactive |  | 
25 | O=c1[nH]c(F)nc2c1ncn2C1OC(CO)C(O)C1O (stereo not given) |  | > 200 | > 200
26 | COC(=O)C1CCOC(C)N1C(=O)OC(C)(C)C (stereo not given) |  | > 200 | > 200
27 | CC(C)CC(NC(=O)OC(C)(C)C)C(=O)NC(CCC(=O)OC1CCCCC1)C(N)=O (stereo not drawn) (Boc-Leu-Glu(OcHex)-NH2; configuration not given here) |  | > 200 | 126
28 | O=C1CN(CCN2CCCCC2)CC(=O)N2CCCCN12 |  | > 200 | > 200
29 | OCC12CCCC(CO)(COC1)C2O (stereo not given) |  | > 200 | > 200
30 | O=C(/C(=C/c1ccc(Br)cc1)c1ccccc1)c1ccccc1 |  | > 14.5 | > 14.5
31 | CCOC(=O)c1c(-c2ccccc2)c(C(OC(c2ccccc2)c2c(-c3ccccc3)c(C(=O)OCC)n3ccccc23)c2ccccc2)c2ccccn12 (stereo not given) |  | > 5.25 | > 5.25
32 | CC(NC(=O)C1CCC(=O)N1)C(=O)N1CCCC1C(N)=O (stereo not drawn) ([pGlu]-Ala-Pro-NH2; configuration not given here) |  | > 200 | > 200
33 | CC1(Br)C(=O)NC(=O)N(C2C=CC(CO)O2)C1O (stereo not given) |  | > 200 | > 200
34 | C[C@@H]1C(=O)O[C@@H]2C[C@@]1(C)[C@@H]1C(=O)C3(O)OC14C2(C)OC(=O)[C@@]4(O)CCC1C3C(O)C=C2CC=CC(=O)[C@@]21C (stereo not given in full) |  | > 200 | 20
35 | COc1ccc2c3c([nH]c2c1[N+](=O)[O-])C(C)=NCC3 | inactive |  | 
